Reference: patent US20240182456A1, “2-((4-((S)-2-(4-CHLORO-2-FLUOROPHENYL)-2-METHYLBENZO[D][1,3]DIOXOL-4-YL)PIPERIDIN-1-YL)METHYL)-1-(((S)-OXETAN-2-YL)METHYL)-1H-IMIDAZOLE DERIVATIVES AS ACTIVATORS OF THE GLP1 RECEPTOR FOR THE TREATMENT OF OBESITY” (Novartis AG, priority 2021, published 2024)
pEC50: −log10 of the molar value. Read-outs that look alike come from different tables or passages of the source.

Tests used:
human GLP1R = human GLP1R (Homo sapiens, UniProt P43220); assay: Human GLP1R DERET internalization assay; assay type: cell-based; conditions: HEK293-SNAP-hGLP1R-GloSensor cells; for pEC50: mean n=2; for Emax: relative to GLP1(7-36)
Procedure: (§1) Compounds 1 to 31 were tested in the following cellular assays that measure the intracellular cAMP concentration, beta-arrestin recruitment and receptor internalization. The cAMP is generated by the activation of GLP1R. The cAMP data obtained is shown in Table 1 (where S.E.M. is included, mean n=3 independent experiments+/−S.E.M). Beta-arrestin is recruited upon activation of GLP1R and the data obtained are shown in Table 2 (mean n=2 independent experiments, +/−S.D). The extent to which the GLP1R is internalized into the cell and away from the plasma membrane following activation is also shown in Table 2 (mean n=2 independent experiments, +/−S.D). EC50 for each assay is defined as the concentration of the compound that leads to half of the maximum response (after baseline correction). Emax is defined as the maximum response observed for the test compound, normalized to the maximum response observed for the endogenous ligand (GLP1(7-36)) to GLP1R.
The extent to which agonists internalize the human GLP1R was determined based on an optimized version of a RealTime FRET-based ‘DERET’ (Dissociation Enhanced Resonance Energy Transfer) assay. The technology relies on labeling of the SNAP-tagged GPCR with a SNAP-Lumi-Terbium (donor fluorophore, Cisbio, cat #SSNPTBD). The compounds are incubated with the cells over-expressing the GPCR of interest in the presence of an excess of fluorescein (acceptor fluorophore). When the GPCR is on the cell surface, the donor signal is quenched by the acceptor and the donor/acceptor ratio is low. As the GPCR internalizes, the donor signal is no longer quenched, and the acceptor is no longer excited so the donor/acceptor ratio increases.
HEK293-SNAP-hGLP1R-GloSensor cells (stably overexpressing SNAP-tagged hGLP1R) were seeded overnight in white 384-well poly-D-Lysine coated plates (Greiner Bio One, cat #781945) in regular DMEM growth medium (Gibco, cat #11965-092, 10% heat-inactivated FBS, 10 mM HEPES, 1× penicillin/streptomycin, 0.5 mg/mL geneticin (Gibco, cat #10131-035) and 0.25 mg/mL hygromycin B (Invitrogen, cat #10687010). On the assay day, cell medium was removed and 100 nM SNAP-Lumi-Tb reagent was added in Opti-MEM solution. The cells were incubated at 37° C. for 1 h. Cells were washed using a plate washer in assay buffer [1×HBSS (10× Gibco, cat #14065-056), 20 mM Hepes (Gibco, cat #15630-080), 1 mM CaCl2 (Fluka, cat #21114-1L), 1 mM MgCl2 (Ambion, cat #AM9530G) pH7.4], and 20 μL buffer with 0.1% BSA was added to each well. After leaving cells to equilibrate for ˜15 min at 37° C., 10 μL of Fluorescein (sodium salt, Sigma, cat #F6377, diluted in buffer) was added at 25 μM final concentration. To generate triplicate dose response curves, compounds were serially diluted 3-fold in assay buffer, then added to the cell assay plate to a final volume of 40 μL and final top concentrations starting at 30 μM. In the same plate and assay buffer as the tested compounds, a GLP1 (7-36) peptide (Bachem, cat #H-6795) control curve was included at a final top concentration of 1 μM in order to establish EC100. EC0 wells with buffer only were also included. The plate FRET fluorescence was measured immediately using a Perkin Elmer Envision with LANCE/DELFIA D400 single mirror, excitation filter X320, and emission filters M615_203 (donor emission) and M515 (acceptor emission), and then measured every 30 min. […] Plates were kept at 37° C. between reads. Data was expressed as the ratio of donor/acceptor emissions using Microsoft Excel and plotted in GraphPad Prism. In order to determine EC50 and Emax for internalization, data was calculated and expressed as percent of the GLP1 (7-36) EC100 control wells: [(sample signal−mean EC0 signal)/(mean EC100 of GLP1 (7-36) signal−mean EC0 signal)]*100 using Microsoft Excel. Curve fitting for EC50 determinations was performed using GraphPad Prism. The 4-parameter logistic model, Hill slope was used:
Y=Bottom+(Top−Bottom)/(1+10^((Log EC50−X)*Hill Slope)), […]

human GLP1R (hGLP1R) = human GLP1R (hGLP1R) (Homo sapiens, UniProt P43220); assay: Human GLP1R cAMP agonist assay (GloSensor); assay type: cell-based; conditions: for pEC50: intracellular cAMP, mean n=3 where SEM is given; for Emax: read-out: Emax mean
Procedure: as §1
Human GLP1R cAMP Agonist Assay
The agonist activity of compounds was determined using the GloSensor™ cAMP Assay (Promega Corp.), which measures changes in the intracellular concentration of cAMP after ligand activation of GPCRs. The assay uses a biosensor encoded by pGloSensor™-22F cAMP plasmid (Promega, cat #E2301) with cAMP binding domains fused to a mutant form of Photinus pyralis luciferase. Binding to cAMP causes conformational changes that promote large increases in light output, which can be measured by a luminescence detector. HEK293-SNAP-hGLP1R-GloSensor cells stably overexpressing the human GLP1 receptor (hGLP1R) and pGloSensor™-22F were seeded in white 384-well poly-D-Lysine coated plates (Greiner Bio One, cat #781945) in CO2-independent media (Gibco cat #18045-088 with 1.0% FBS, 2 mM L-glutamine, penicillin and streptomycin) and incubated overnight at 37° C., 5% CO2 with humidity. The assay was started the following morning by adding an equal volume of CO2-independent media containing 4% v/v dilution of the GloSensor substrate (Promega, cat #E1291) to all wells. The cell plate was incubated at rt for 2 h in the dark. The Biomek 7 (Beckman Coulter) instrument was used for the liquid handling steps. To generate duplicate dose response curves, 3-fold serially diluted compounds were added in to the cell assay plate to a final volume of 60 μL with final concentrations ranging from 30 μM through 0.06 μM in CO2-independent media containing 0.1% BSA, 0.5 mM IBMX and 0.4% DMSO. In the same plate and assay buffer as the tested compounds, were EC100 control wells containing GLP1 (7-36) peptide (Bachem, cat #H-6795) at a final concentration of 2 nM and also EC0 control wells containing no peptide. This plate was incubated at rt in the dark for 12 min after adding the compounds to the cells. Luminescence was then measured with an Envision 2104 Multilabel reader with “TRF Light Unit, 337 nm” (PerkinElmer) using the Ultra-Sensitive protocol setting “384-well US luminescence detector” with the 384-well luminescence aperture, 0.1 seconds per well. cAMP activity was calculated as percent of the GLP1 (7-36) EC100 control wells: [(sample signal−mean EC0 signal)/(mean EC100 of GLP1 (7-36) signal−mean EC0 signal)}*100. Curve fitting for EC50 determinations was performed in the Helios module of the software package DAVID. The 4-parameter logistic model, Hill slope was used: y=Ainf+(A0−Ainf)/(1+(x/AC50)^Hill Slope) where y is the functional response; x is the compound concentration; A0 is the minimum value (at 0 dose); Ainf is the maximum value (at infinite dose); AC50 corresponds to the point of inflection (i.e. the point on the sigmoid shaped curve halfway between A0 and Ainf). The EC50 value was represented by the AC50 value calculated from Helios in μM. Emax is the maximal activity detected within the concentration range, derived from the fitted curve. […]

[1] = HEK293-SNAP-hGLP1R-GloSensor cells
[2] = HEK293-SNAP-hGLP1R-GloSensor cells, cAMP, normalized to GLP1(7-36) maximum response

Sequence of human GLP1R (hGLP1R) (P43220 24-463): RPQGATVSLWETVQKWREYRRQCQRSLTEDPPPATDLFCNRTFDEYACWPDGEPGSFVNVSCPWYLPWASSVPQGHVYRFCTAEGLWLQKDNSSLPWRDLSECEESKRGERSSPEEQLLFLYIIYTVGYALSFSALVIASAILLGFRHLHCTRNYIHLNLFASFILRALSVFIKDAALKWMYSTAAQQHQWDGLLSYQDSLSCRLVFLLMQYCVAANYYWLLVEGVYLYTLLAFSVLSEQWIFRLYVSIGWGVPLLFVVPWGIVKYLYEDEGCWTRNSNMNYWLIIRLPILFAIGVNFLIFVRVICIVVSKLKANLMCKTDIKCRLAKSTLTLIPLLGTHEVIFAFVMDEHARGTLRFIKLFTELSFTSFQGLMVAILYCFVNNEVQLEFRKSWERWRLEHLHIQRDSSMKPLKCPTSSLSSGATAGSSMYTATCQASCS
Sequence of human GLP1R (P43220 24-463): as above

## Cc1nc(CN2CCC(c3cccc4c3O[C@@](C)(c3ccc(Cl)cc3F)O4)CC2)n(C[C@@H]2CCO2)c1-c1nc(=O)o[nH]1 [Compound C-20, 3-(2-((4-((S)-2-(4-chloro-2-fluorophenyl)-2-methylbenzo[d][1,3]dioxol-4-yl)piperidin-1-yl)methyl)-4-methyl-1-(((S)-oxetan-2-yl)methyl)-1H-imidazol-5-yl)-1,2,4-oxadiazol-5(2H)-one]
Human GLP1R
  pEC50: < 4.52
  Emax: 6%
Human GLP1R (hGLP1R); [1]
  pEC50: 9.69
Human GLP1R (hGLP1R)
  Emax: 104%

## Cc1c(-c2nc(=O)o[nH]2)nc(CN2CCC(c3cccc4c3O[C@@](C)(c3ccc(Cl)cc3F)O4)CC2)n1C[C@@H]1CCO1 [Compound C-21, 3-(2-((4-((S)-2-(4-chloro-2-fluorophenyl)-2-methylbenzo[d][1,3]dioxol-4-yl)piperidin-1-yl)methyl)-5-methyl-1-(((S)-oxetan-2-yl)methyl)-1H-imidazol-4-yl)-1,2,4-oxadiazol-5(2H)-one]
Human GLP1R
  pEC50: 5.75
  Emax: 13%
Human GLP1R (hGLP1R); [2]
  Emax: 104%
Human GLP1R (hGLP1R); [1]
  pEC50: 9.53

## Cc1nc(CN2CCC(c3cccc4c3O[C@@](C)(c3ccc(Cl)cc3F)O4)CC2)n(C[C@@H]2CCO2)c1C#CC(=O)O [Compound C-22, 3-(2-((4-((S)-2-(4-chloro-2-fluorophenyl)-2-methylbenzo[d][1,3]dioxol-4-yl)piperidin-1-yl)methyl)-4-methyl-1-(((S)-oxetan-2-yl)methyl)-1H-imidazol-5-yl)propiolic acid]
Human GLP1R
  pEC50: 7.74
  Emax: 76%
Human GLP1R (hGLP1R); [2]
  Emax: 102%
Human GLP1R (hGLP1R); [1]
  pEC50: 11.40

## C[C@]1(c2ccc(Cl)cc2F)Oc2cccc(C3CCN(Cc4nc(C(F)(F)F)c(-c5nnn[nH]5)n4C[C@@H]4CCO4)CC3)c2O1 [Compound C-24, 4-((S)-2-(4-chloro-2-fluorophenyl)-2-methylbenzo[d][1,3]dioxol-4-yl)-1-((1-(((S)-oxetan-2-yl)methyl)-5-(1H-tetrazol-5-yl)-4-(trifluoromethyl)-1H-imidazol-2-yl)methyl)piperidine]
Human GLP1R
  pEC50: < 4.52
  Emax: -3%
Human GLP1R (hGLP1R); [1]
  pEC50: 9.11
Human GLP1R (hGLP1R)
  Emax: 112%

## C[C@]1(c2ccc(Cl)cc2F)Oc2cccc(C3CCN(Cc4nc(C(F)(F)F)c(-c5nc(=O)o[nH]5)n4C[C@@H]4CCO4)CC3)c2O1 [Compound C-26, 3-(2-((4-((S)-2-(4-chloro-2-fluorophenyl)-2-methylbenzo[d][1,3]dioxol-4-yl)piperidin-1-yl)methyl)-1-(((S)-oxetan-2-yl)methyl)-4-(trifluoromethyl)-1H-imidazol-5-yl)-1,2,4-oxadiazol-5(2H)-one]
Human GLP1R
  pEC50: < 4.52
  Emax: -6%
Human GLP1R (hGLP1R); [1]
  pEC50: 9.04
Human GLP1R (hGLP1R)
  Emax: 99%
